From patent US20100048545A1, “Compounds and Compositions for Use in the Prevention and Treatment of Disorders of Fat Metabolism and Obesity” (INNODIA INC., priority 2006, published 2010)
Entries after “also recorded” stand apart in the source; their conditions may differ. Where two headings read alike, the source gives them in different places.

How the values were obtained:
[1] = system: DIO-mice; conditions: for food consumption: 4-OH 50 or 100 mg/kg
Excerpt: The objective of this study was to evaluate the effect of chronic administration of 4-hydroxyisoleucine (4-OH, compound 14a) and Rosiglitazone, administered alone or in combination, on food consumption and body weight gain of DIO-mice. Both parameters were monitored for 1 week prior to the commencement of treatment, then for the 28 days of treatment and for an additional 7 days post-treatment.
A total of 72 animals were used in the study. The animals were distributed into 6 groups (5 treated, 1 control group, all on high fat diet). Each group was composed of 12 animals. The mice were randomized according to body weight and basal glycemia values following a 5±0.5 hour fasting period.
For the four weeks of treatment, the test articles were dissolved in reverse osmosis water. 4-Hydroxyisoleucine was aliquoted and kept at 4° C. (administration to groups 2, 3, and 6), while Rosiglitazone was freshly prepared daily and kept at 4° C. between the AM and PM administration to groups 4, 5, and 6. Control animals received reverse osmosis water twice daily (group 1). Mice from groups 2 and 3 were treated twice daily with 4-OH at 50 and 100 mg/kg, respectively. Animals from groups 4 and 5 received 1.5 and 5 mg/kg of Rosiglitazone, respectively. […] All groups were treated by oral gavage. Treatment commenced on Day 0 and ended on Day 28 (FIGS. 18A and 18C.
Food consumption was measured and averaged on a weekly basis beginning one week before the start of treatment as shown in FIGS. 18B and 18D as week −1. Similarly, food consumption was monitored for one week after treatment was stopped and is shown as week 5 in FIGS. 18B and 18D, In FIG. 18B, the food consumption over time for various treatment groups is illustrated by the bar graph.

[2] = system: lean mice subjected to a high fat diet; experiment: Prevention of obesity in lean mice subjected to a high fat diet, 21 days; format: in vivo, C57BL/6 mice; conditions: for transient increase of caloric intake: HFD
Excerpt: C57BL/6 mice were fed a standard chow (LabDiet #5001; 12% of calories from fat) upon arrival and during the acclimation and pre-treatment periods. […] Treatment was initiated on the first day of experimentation (Day 1) and lasted 21 days. Animals from group 1 were fed the standard chow for the duration of the study and received water orally twice daily (ND: normal diet control). Mice from group 2 were given the high fat diet (HFD; 60% of calories from fat) starting on day 1 of experimentation and until day 21 of the study. These mice also received water by oral gavage and served as the high fat diet control (ND→HFD). Mice from group 3 and 4 were also fed the high fat diet upon start of treatment on day 1 and for the duration of the study but were treated orally twice daily with 100 and 150 mg/kg of 4-OH. From day 1 to day 21 of the study, body weight and food consumption were measured daily.

[3] = system: wistar obese rats; experiment: Reversal of weight gain in rat model of diet-induced obesity, 28 days; conditions: 100 mg/kg twice daily oral
Excerpt: The aim of this study was to evaluate the effect of chronic administration of 4-hydroxyisoleucine (4-OH, Compound 14a) on food consumption, tissue weight, and body weight gain of wistar obese rats.
A total of 30 animals were used in the study. The animals were acclimated for 1 week and fed standard chow. The animals were randomized into 3 groups of 10 animals each. Two groups were fed a high fat, high sucrose diet (HFHS), and 1 untreated control group was fed standard chow over a 28 day period. Animals were housed separately and food consumption was monitored daily.
In the following period of 28 days, the feeding regimen remained the same for the 3 groups; however, 1 group fed HFHS was treated with twice daily oral administration of 4-OH at 100 mg/kg per dose. For the 28 days of treatment, 4-OH was dissolved in reverse osmosis water, aliquoted, and kept at 4° C. Untreated animals received water twice daily.

[4] = system: Wistar rat model of diet-induced obesity; experiment: Food consumption, weight gain and plasma triglycerides in Wistar rat model of diet-induced obesity, 28 days; format: in vivo, Wistar rats; conditions: for triglycerides plasma levels: 28 days
Excerpt: A total of 60 animals were used in the study. The animals were distributed into 6 groups; 1 group was fed standard chow, 1 group was fed a high fat, high sucrose (HFHS) diet with 28 days treatment, 1 untreated control group was fed a HFHS diet, and 1 untreated group was fed a HFHS diet, but with caloric intake restricted to match the caloric intake of the 4-OH treated animals (pair-fed animals). A fifth group was fed a high fat, high sucrose (HFHS) diet with 28 days treatment and received an acute oral administration of 4-OH just prior to experimentation on Day 29 of the study, and a sixth group was fed a HFHS diet, but with caloric intake restricted to match the caloric intake of the 4-OH treated animals receiving an acute oral administration of 4-OH on Day 29 of the study (pair-fed animals). Each group was composed of 10 animals. […] Body weights were measured once weekly from week 1 to week 4 of the study. For the four weeks of treatment, the test article 4-OH was dissolved in reverse osmosis water. 4-OH aliquoted and kept at 4° C. […] Untreated animals received water twice daily.

[5] = system: ATGL; experiment: RT-PCR gene expression in adipocytes of treated rats: ATGL; format: in vivo
Protocol: (§1) As the ex vivo studies on adipocytes indicated the lipolytic effect of drug was due to chronic exposure (see previous example), a role in gene regulation was assessed. RT-PCR was used to assess the expression of genes in the adipocytes from treated and control animals.

[6] = system: CPT1; experiment: RT-PCR gene expression in adipocytes of treated rats: CPT1; format: in vivo; conditions: data not shown
Protocol: as §1

C[C@@H]([C@H](C)O)[C@H](N)C(=O)O [Compound 14a, (2S,3R,4S)-4-Hydroxyisoleucine]
weight gain ([1]; 4-OH 100 mg/kg twice daily): Moderation of weight gain was observed | food consumption ([1]; first week of treatment, listed as 4-OH): food consumption decreased; also recorded: reduction in food consumption during the first week, but not after | food consumption ([1]; remainder of the treatment phase): consumption returned to pre-treatment levels | weight gain ([1]; Rosiglitazone 1.5 mg/kg with 4-OH 50 mg/kg, relative to the group treated with Rosiglitazone alone): able to modulate the weight gain induced by Rosiglitazone | transient increase of caloric intake ([2]; 100 mg/kg): less pronounced | transient increase of caloric intake ([2]; 150 mg/kg): completely abolished this increase of caloric intake | caloric intake ([2]; 150 mg/kg, day 2 to day 6 of treatment): even lower than mice fed the standard chow | weight gain induced by high fat feeding ([2]; 100 and 150 mg/kg orally twice daily, 21 days): completely prevented | epididymal fat weight ([2]; 100 and 150 mg/kg, after 21 days, p<0.01): prevented significantly the increase of weight of the epididymal fat | body weight compared to ND mice ([2]; highest dose (150 mg/kg), high fat diet): decreased body weight compared to mice fed the standard chow | epididymal and peri-renal adipose tissue [3]: reduction of epididymal and peri-renal adipose tissue | food consumption [3]: reduction in food consumption | muscle, brown fat, and organ weight [3]: not affected | tolerability of treatment ([3]; after 28 days HFHS): well tolerated | weight gain ([3]; after 28 days HFHS): reversal of weight gain | weight gain ([3]; after 28 days HFHS, listed as 4-OH): Moderation of weight gain was observed | triglycerides plasma levels ([4]; 100 mg/kg twice daily, p<0.05): lower triglycerides plasma levels | triglycerides plasma levels ([4]; 100 mg/kg twice daily, p<0.05, listed as 4-OH): significantly decreased compared to the respective pair fed groups | food consumption ([4]; 100 mg/kg twice daily, first week, vs HFHS control): slightly decreased | weight gain after 28 days of treatment ([4]; 100 mg/kg twice daily, p<0.05): significantly decreased compared to the pair fed group and the HFHS control group | weight gain after 28 days of treatment ([4]; chronic 4-OH plus an acute oral administration on Day 29, p<0.05): significantly decreased compared to the respective pair-fed group and the HFHS control group | expression of ATGL, increase [5]: more than two times | Increase (x times) in expression of ATGL ([5]; HFHS diet, treated for 4 weeks (28 days)): 2.6 x times | expression of CPT1 [6]: Upregulation
